The results in this text go back to patent publication US20120129763A1, “NOVEL SEMI-SYNTHETIC GLYCOPEPTIDES AS ANTIBACTERIAL AGENTS” (BIOMARIN PHARMACEUTICAL INC., priority 2007, published 2012).

Molecules are shown by their SMILES. In brackets after ≈: the same amount, converted by molar mass.

Common to all, as to type: cell-based
Holding throughout (settings): clinical isolate, Mueller-Hinton broth

The test system of experiment [1] is Enterococcus faecalis 101 (vancomycin sensitive). Put plainly: Broth microdilution MIC, EFC 101. Here is the method: (§1) Antibacterial activity in vitro is investigated by broth microdilution method in Meuller-Hinton broth as recommended by NCCLS. All strains tested are clinical isolates either sensitive or resistant to natural glycopeptides. MIC values were determined using the CLSI-recommended broth microdilution procedure (Clinical and Laboratory Standards Institute, Methods for Dilution Antimicrobial Susceptibility Tests for Bacteria That Grow Aerobically; Approved Standard-Seventh Edition). Automated liquid handlers (Multidrop 384, Labsystems, Helsinki, Finland; Biomek 2000 and Multimek 96, Beckman Coulter, Fullerton Calif.) were used to conduct serial dilutions and liquid transfers.
(In general: Dilution methods test growth across graded concentrations, often in twofold steps.)

Experiment [2] concerns Streptococcus pyogenes 712 (penicillin sensitive). Put plainly: Broth microdilution MIC, SPYO 712. On the procedure: as §1
For experiment [3], the system named is Staphylococcus epidermidis 835 (MSSE). Put plainly: Broth microdilution MIC, SE 835. Also on record: unit not given beside the values. On the procedure: as §1
The test system of experiment [4] is Staphylococcus aureus 100 (MSSA). Nature of the experiment: Broth microdilution MIC, SA 100. On the procedure: as §1
Experiment [5] relates to Staphylococcus aureus 2012 (VISA). Put plainly: Broth microdilution MIC, SA 2012. On the procedure: as §1
The subject of experiment [6] is Staphylococcus aureus 757 (MRSA). Put plainly: Broth microdilution MIC, SA 757. Here is the method:
as §1

Experiment [7] concerns Enterococcus faecium 750 (vancomycin sensitive). Nature of the experiment: Broth microdilution MIC, EFCM 750. Here is the method: as §1
Experiment [8] relates to Enterococcus faecalis 848 (VRE). Nature of the experiment: Broth microdilution MIC, EFC 848. On the procedure:
as §1

The subject of experiment [9] is Enterococcus faecium 752 (VRE). Put plainly: Broth microdilution MIC, EFCM 752. On the procedure: as §1
Experiment [10] relates to Streptococcus pneumoniae 1195 (penicillin sensitive). Nature of the experiment: Broth microdilution MIC, SPNE 1195. Here is the method: as §1
The subject of experiment [11] is Staphylococcus epidermidis 831 (MRSE). Nature of the experiment: Broth microdilution MIC, SE 831. Also on record: unit not given beside the values. On the procedure:
as §1

Regarding `CCCCCCCCNC(=O)NC(=O)C[C@@H]1NC(=O)[C@H](NC(=O)[C@@H](CC(C)C)NC)[C@H](O)c2ccc(c(Cl)c2)Oc2cc3cc(c2OC2OC(CO)C(O)C(O)C2O)Oc2ccc(cc2Cl)[C@@H](O)[C@H]2NC(=O)[C@H](NC(=O)[C@@H]3NC1=O)c1ccc(O)c(c1)-c1c(O)cc(O)cc1[C@@H](C(=O)NC1C3CC4CC(C3)CC1C4)NC2=O` (stereo partly drawn) [Compound 29], the MIC, E FC 101 in experiment [1] came out at 1 µg/mL (≈ 0.627 µM). Further, the MIC, S PYO 712 in experiment [2] came out at 0.12 µg/mL (≈ 0.0753 µM). Besides, the “MIC, SE 835” value in experiment [3] amounted to 1. In addition, the MIC, SA 100 in experiment [4] amounted to 2 µg/mL (≈ 1.25 µM). The molecule also registered an MIC, SA 2012 in experiment [5] of 1 µg/mL (≈ 0.627 µM). In addition, the MIC, SA 757 in [6] stood at 1 µg/mL (≈ 0.627 µM). This molecule yielded an MIC, E FCM 750 in experiment [7] of 0.5 µg/mL (≈ 0.314 µM). In experiment [8], the MIC, E FC 848 is 2 µg/mL (≈ 1.25 µM). Further, the MIC, E FCM 752 in experiment [9] stood at 2 µg/mL (≈ 1.25 µM). Further, in [10], the MIC, S PNE 1195 is 0.12 µg/mL (≈ 0.0753 µM). Besides, the “MIC, SE 831” value in experiment [11] amounted to 0.5.

`CN[C@H](CC(C)C)C(=O)N[C@H]1C(=O)N[C@@H](CC(=O)NC(=O)N[C@@H](C)c2ccccc2)C(=O)N[C@H]2C(=O)N[C@@H]3C(=O)N[C@H](C(=O)N[C@H](C(=O)NC4C5CC6CC(C5)CC4C6)c4cc(O)cc(O)c4-c4cc3ccc4O)[C@H](O)c3ccc(c(Cl)c3)Oc3cc2cc(c3OC2O[C@H](COC(=O)N[C@@H](C)c3ccccc3)[C@@H](O)[C@H](O)[C@H]2O)Oc2ccc(cc2Cl)[C@H]1O` (stereo partly drawn) [Compound 75]: the MIC, E FC 101 in experiment [1] came to 2 µg/mL (≈ 1.15 µM). In experiment [2], this molecule gave an MIC, S PYO 712 of 0.25 µg/mL (≈ 0.144 µM). Also, the “MIC, SE 835” value in experiment [3] stood at 2. This molecule had an MIC, SA 100 in experiment [4] of 4 µg/mL (≈ 2.31 µM). Further, the MIC, SA 2012 in experiment [5] is 4 µg/mL (≈ 2.31 µM). The MIC, SA 757 in experiment [6] came to 2 µg/mL (≈ 1.15 µM). The MIC, E FCM 750 in experiment [7] is 0.5 µg/mL (≈ 0.288 µM). The same molecule showed an MIC, E FC 848 in experiment [8] of 2 µg/mL (≈ 1.15 µM). Moreover, in experiment [9], the MIC, E FCM 752 is 2 µg/mL (≈ 1.15 µM). The MIC, S PNE 1195 in [10] came to 1 µg/mL (≈ 0.577 µM). Moreover, in experiment [11], the “MIC, SE 831” value is 1.

In experiment [1], `CN[C@H](CC(C)C)C(=O)N[C@H]1C(=O)N[C@@H](CC(=O)NC(=O)N[C@@H](C)c2ccccc2)C(=O)N[C@H]2C(=O)N[C@@H]3C(=O)N[C@H](C(=O)N[C@H](C(=O)NC4C5CC6CC(C5)CC4C6)c4cc(O)cc(O)c4-c4cc3ccc4O)[C@H](O)c3ccc(c(Cl)c3)Oc3cc2cc(c3OC2O[C@H](CO)[C@@H](O)[C@H](O)[C@H]2O)Oc2ccc(cc2Cl)[C@H]1O` (stereo partly drawn) [Compound 76] yielded an MIC, E FC 101 of 2 µg/mL (≈ 1.26 µM). This molecule also showed an MIC, S PYO 712 in experiment [2] of 0.06 µg/mL (≈ 0.0378 µM). For the same molecule, the “MIC, SE 835” value in [3] worked out at 1. The molecule further gave an MIC, SA 100 in experiment [4] of 2 µg/mL (≈ 1.26 µM). For the same molecule, in [5], the MIC, SA 2012 is 4 µg/mL (≈ 2.52 µM). The molecule also registered an MIC, SA 757 in [6] of 2 µg/mL (≈ 1.26 µM). The same molecule showed an MIC, E FCM 750 in experiment [7] of 0.5 µg/mL (≈ 0.315 µM). The same molecule yielded an MIC, E FC 848 in [8] of 8 µg/mL (≈ 5.04 µM). Also, in experiment [9], the MIC, E FCM 752 was 8 µg/mL (≈ 5.04 µM). For the same molecule, the MIC, S PNE 1195 in [10] turned out to be 0.25 µg/mL (≈ 0.158 µM). In [11], the “MIC, SE 831” value was determined as 1.
